Molecules are shown by their SMILES.

The subject of assay [1] is heat shock response (HSR). The experiment in a line: Heat shock response luciferase reporter assay in H9c2. It is filed as cell-based, rat. The following applies: H9c2, 10E-5 to 10E-10M, 4 hours, 3 hours washout. The protocol: (§1) H9c2 rat cardiomyoblasts were seeded at a density of 5,000 cells per well in 96 well plates in DMEM 10% FBS complete medium and transfected using lipofectamine with the Cignal Reporter Assay Heat shock response and Antioxidant response kits (SABiosciences, Qiagen) according to the manufacturers' protocol.

The subject of assay [2] is antioxidant responsive elements (ARE). The experiment in a line: Antioxidant response luciferase reporter assay in H9c2. It is filed as cell-based, rat. The following applies: H9c2, 10E-5 to 10E-10M, 4 hours, 3 hours washout. The protocol:
as §1
For orientation: A reporter such as luciferase makes a cellular process visible.

The subject of assay [3] is human mesenchymal stem cells (hMSC). The assay is described as follows: mRNA expression in hMSC by real-time PCR. It is filed as cell-based. The following applies: FIGS. 25A, 25B, 26A to 26D. The text has this: FIG. 25A is a table representing mRNA expression of selected genes measured by real-time PCR in human mesenchymal stem cells (hMSC) conditioned with Celastrol alone or in combination with selected adjunct agents. Results are expressed as fold change versus Vehicle-treated cells.
FIG. 25B is a table representing mRNA expression of selected genes measured by real-time PCR in human mesenchymal stem cells (hMSC) conditioned with selected Celastrol analogs alone or in combination with selected adjunct agents. Results are expressed as fold change versus Vehicle-treated cells.
Results are expressed as fold change versus Vehicle-treated cells. (Arbitrary angiogenic index: (VEGFa+FGF2+SDF1)*2) (A=Additive effect; S=Synergistic effect).
(§2) To test the second main condition, MSCs were treated with the candidate pharmaco-optimizers for 1 hour, followed by 3 hours washout period. Cell mRNA was extracted and expression of genes of interest was quantified by real time PCR. In additional MSC cultures, cells were treated for one hour, washed and cultured in low serum media for 24 hours. The media containing paracrine factors secreted by MSCs was then placed in contact with H9c2 cardiomyoblast cell line. H9c2 cells were then submitted to the hypoxia/serum starvation (<1% O2 in hypoxia chamber in low serum media for 48 hours) or oxidative stress (incubation in media for 1 hour spiked with 0-1 mM H2O2). Viability status of H9c2 cells was evaluated using the LIVE/DEAD assay as detailed above.
For orientation: In qPCR the cycle at which signal appears reflects the starting amount.

The next assay deals with isolated perfused heart. Set-up: species or system rat.
Assay [4] is described as follows: Rat myocardial ischemia/reperfusion in vivo, echocardiography at 24 h. The following applies: 1 mg/Kg intraventricular, vs Vehicle. How it is done: Rats were randomly assigned to the following groups: Sham (n=6), Vehicle (n=8), Celastrol 1 mg/Kg (n=6) or Celastrol analogs. Under 2% isoflurane anesthesia, baseline echocardiography using a Sonos 5500 Imaging System (Philips, Philips Healthcare, Andover, Mass., USA) with a 12 MHz transducer was performed as described^12. All measures were acquired by the same experienced observer, blinded to the treatment. For each measurement, three to five cardiac cycles were analysed and averaged.
After echocardiography, the animal was intubated and mechanically ventilated, then bupivacaine 2 mg/kg was injected, and a left thoracotomy was performed, exposing the heart. Using a 5-0 silk slipknot, an occlusion of the left anterior descending coronary artery was performed. Visual blanching and electrocardiographic changes confirmed myocardial ischemia. In Sham animals, suture was not ligated. After 30 minutes, the suture occlusion was released. Celastrol, Celastrol analogs or vehicle was injected intraventricularly for acute systemic delivery, then the chest was closed. Buprenorfine (0.05 mg/Kg sc) and carprofen (5 mg/Kg sc) were injected at the end of surgery. Animals were left to recuperate for 24 h, then a second echocardiography was performed. Animals were sacrificed, cardiac tissue was snap frozen, and blood was collected in heparinized tubes, then centrifuged at 4° C. Plasma was collected, snap frozen and kept at −80° C. until analysis.

Assay [5] has as its system H9c2 cardiomyoblasts. The assay is described as follows: H9c2 viability under hypoxia/serum starvation (LIVE/DEAD). It counts as cell-based, rat. The settings on record: 1 uM. How it is done: For survival to hypoxic challenge and oxidative challenge, H9c2 cardiomyoblasts are submitted to the hypoxia/serum starvation (<1% O2 in hypoxia chamber in low serum media for 48 hours) or oxidative stress (incubation in media for 1 hour spiked with 0-1 mM H2O2). Viability status of H9c2 cells was evaluated using the LIVE/DEAD assay.

In assay [6] the test system is H9c2 cardiomyoblasts. The assay is described as follows: H9c2 viability under hypoxia/reoxygenation stress. It counts as cell-based, rat. The settings on record: 1 uM. How it is done:
Next, the hypoxia/reoxygenation challenge is performed. Briefly, viability analysis was performed in rat H9c2 cardiomyoblasts as previously reported. For hypoxia/reoxygenation stress, cells were cultured in DMEM no glucose (Life Technologies), serum starved and placed in hypoxic conditions (<1% O2) for 18 h. At reoxygenation (normoxic conditions), cells were treated with Celastrol (10^−10 to 10^−6 mol/L, Cayman Chemical, Ann Arbor, Mich.), Celastrol analogs or vehicle (Dimethyl sulfoxide (DMSO), Sigma-Aldrich Canada, Oakville, ON; final concentration<1% v/v) in DMEM high glucose 1% FBS for 1 h, then reoxygenation was continued in DMEM high glucose for an additional 5 h.

In assay [7] the test system is H9c2 cardiomyoblast cell line. The experiment in a line: H9c2 viability in hypoxia after pre-conditioning with media from treated rMSC (paracrine). It is filed as cell-based, rat. The following applies: 48-hour pre-conditioning with media from treated rMSC; Gedunin high dose. How it is done:
as §2

Assay [8] concerns rat mesenchymal stem cells (rMSC). The assay is described as follows: mRNA expression in rMSC by real time PCR. It is filed as cell-based. The following applies: rMSC, 1-hour treatment and 3-hour washout, co-treatment with EGCG or tBHQ. The protocol:
as §2
Combination Treatments Tested—First Experiment: Celastrol (1 μM) or Gedunin (1 μM)+EGCG (1 μM, 10 μM) or TBHQ (1 μM, 5 μM)

Assay [9] has the same test system. The experiment in a line: rMSC viability after oxidative stress (H2O2, LIVE/DEAD). It counts as cell-based. The settings on record: 1-hour treatment, compound alone. The protocol: (§3) To test the first main condition, MSCs (either sourced from rat or humans) were treated with the candidate pharmaco-optimizers, washed and submitted to hypoxia/serum starvation (<1% O2 in hypoxia chamber in low serum media for 48-72 hours) or oxidative stress (incubation in media for 1 hour spiked with 0-2 mM H2O2), which mimic the major lethal stressors present in the ischemic transplant microenvironment. Viability status of cells are assessed using the LIVE/DEAD viability/cytotoxicity kit (Life Technologies™) and results are quantified by Operetta high content screening (HCS) apparatus equipped with Harmony automated analysis software (Perkin Elmer™).

Another assay has as its system H9c2 cells. The experiment in a line: H9c2 viability in oxidative stress after pre-conditioning with media from treated rMSC (paracrine). It is filed as cell-based, rat. The settings on record: 24-hour preconditioning with media from treated rMSC. The protocol:
as §2

The next assay concerns human MSCs. The experiment in a line: Screen of compounds for viability of human MSCs under hypoxic stress. It counts as cell-based. The following applies: FIG. 1. How it is done:
In an attempt to identify conditioning compounds that are able to ensure in vivo cellular viability, based on preliminary evidence using Celastrol, over a dozen compounds with structural similarities identified through literature and the Sigma-Aldrich® Structure Search online tool, were screened. The compounds' capacity to improve viability of human MSCs challenged to hypoxic stress was measured. The molecules that were screened, most of which are natural compounds, can be classified as triterpenoids, limonoids, withanolides, sterols, isoprenoides/ diterpenes and flavonoids. Classical HSP90 inhibitors were also added to the screen, such as Radicicol that directly target the ATP binding pocket at the NT region of HSP90^9 (NT inhibitor). […] 28; 42(2):260-6.^10Patwardhan C. A. et al., J Biol Chem. 2013 Mar. 8; 288(10):7313-25.^11Sreeramulu S. et al., Angew Chem Int Ed Engl. 2009; 48(32):5853-5.^12Gu M., et al. Invest New Drugs. 2014 Feb.;32(1):68-74.

Assay [10] has as its system rat mesenchymal stem cells (rMSC). The experiment in a line: rMSC viability after hypoxia/serum starvation (LIVE/DEAD). The following applies: 1-hour treatment, compound alone. It counts as cell-based. How it is done: as §3
Setting [11] is: 10^−8 mol/L dose, vs Vehicle (DMSO).

For the compound `CC1=C(O)C(=O)C=C2C1=CC=C1[C@@]2(C)CC[C@@]2(C)[C@@H]3C[C@](C)(C(N)=O)CC[C@]3(C)CC[C@]12C` [Analog 1], in assay [1], the “stimulation of reporter gene controlled by heat shock responsive elements (HSR)” value (shortened to “stimulation of reporter gene controlled … (HSR)”) is “among the most potent and efficient compounds tested”. Moreover, in [2], the “stimulation of reporter gene controlled by antioxidant responsive elements (ARE)” value (“stimulation of reporter gene controlled … (ARE)” for short) was “among the most potent and efficient compounds tested”. The “ranking as HSP90 inhibitor from expression of HSPs, growth factors, antioxidant proteins/enzymes, cytokines, matrix remodeling proteins” value in assay [3] was “best HSP90 inhibitors”. Moreover, the “infarct area measured by TTC stain” value in the assay with isolated perfused heart is reported as “significantly reduced”. In the assay with isolated perfused heart (setting [11]), the “Coronary reserve flow (CRF)” value was “preserved”; the “I/R-induced systolic dysfunction (+/−dP/dt, generated pressure, EDP, contractility index)” value is recorded as “protected the heart from I/R-induced systolic dysfunction”; the “high sensitivity troponin T (TNT-hs) release” value was “significantly reduced”. Further, in assay [4], the “cardiac output (CO) following I/R injury” value is recorded as “preserving”, the “ejection fraction (EF) following I/R injury” value is reported as “preserving”, the “fractional shortening (FS) following I/R injury” value is given as “preserving” and the “stroke volume (SV) following I/R injury” value is “preserving”. Moreover, the “protection of H9c2 cardiomyoblasts from hypoxia” value with H9c2 cardiomyoblasts [5] was “effective”. For the same compound, in the assay on H9c2 cardiomyoblasts [6], the “protection of H9c2 cardiomyoblasts from hypoxia/reoxygenation stress” value (from here on “protection … from hypoxia/reoxygenation stress”) is recorded as “effective”.

Consider `CC1=C(O)C(=O)C=C2C1=CC=C1[C@@]2(C)CC[C@@]2(C)[C@@H]3C[C@](C)(C(=O)NCCO)CC[C@]3(C)CC[C@]12C` [Analog 3], for which the “stimulation of reporter gene controlled … (HSR)” value in assay [1] was “among the most potent and efficient compounds tested”. Besides, in assay [2], the “stimulation of reporter gene controlled … (ARE)” value is “among the most potent and efficient compounds tested”. For the same compound, the “ranking as HSP90 inhibitor from expression of HSPs, growth factors, antioxidant proteins/enzymes, cytokines, matrix remodeling proteins” value in assay [3] was “best HSP90 inhibitors”. Besides, in the assay with H9c2 cardiomyoblasts [5], the “protection of H9c2 cardiomyoblasts from hypoxia” value is “effective”. In addition, the “protection … from hypoxia/reoxygenation stress” value with H9c2 cardiomyoblasts [6] is on record as “effective”.

In the case of `CC1=C(O)C(=O)C=C2C1=CC=C1[C@@]2(C)CC[C@@]2(C)[C@@H]3C[C@](C)(C(=O)NO)CC[C@]3(C)CC[C@]12C` [Analog 4], the “stimulation of reporter gene controlled … (HSR)” value in assay [1] was “among the most potent and efficient compounds tested”. In [2], the “stimulation of reporter gene controlled … (ARE)” value is “among the most potent and efficient compounds tested”. Further, in the assay with H9c2 cardiomyoblasts [5], the “protection of H9c2 cardiomyoblasts from hypoxia” value is “effective”. The “protection … from hypoxia/reoxygenation stress” value with H9c2 cardiomyoblasts [6] is “effective”.

As for `CC(=O)O[C@@H]1C[C@H]2C(C)(C)C(=O)C=C[C@]2(C)[C@H]2CC[C@@]3(C)[C@H](c4ccoc4)OC(=O)[C@H]4O[C@]43[C@@]21C` [Gedunin], in assay [7], the “protection of H9c2 from 48-hour hypoxia-induced cell death (paracrine)” value is “protects”. Besides, the “IL-1β mRNA expression induced by EGCG and tBHQ” value in assay [8] is “downregulate”. The “protection of rMSCs from oxidative stress induced death” value in assay [9] was “protect treated cells from oxidative stress-induced death”. Also, the “protection of H9c2 cells from oxidative stress induced death (paracrine)” value in the assay with H9c2 cells is listed as “protects”. Also, the “capacity to improve viability of human MSCs challenged to hypoxic stress” value in the assay with human MSCs is “top scoring”. Moreover, the “protection of rMSCs from 48-hour hypoxia induced cell death” value in assay [10] is given as “protect”.

Turning to `C[C@@H]1C[C@H]2O[C@@H]2/C=C\C=C\C(=O)Cc2c(Cl)c(O)cc(O)c2C(=O)O1` [Radicicol], in assay [7], the “protection of H9c2 from 48-hour hypoxia-induced cell death (paracrine)” value is on record as “does not produce a mediator for paracrine efficacy”. For the same compound, the “protection of rMSCs from oxidative stress induced death” value in assay [9] is reported as “not”. The “protection of H9c2 cells from oxidative stress induced death (paracrine)” value in the assay on H9c2 cells was “no protection”. The “protection of rMSCs from 48-hour hypoxia induced cell death” value in assay [10] is “protect”.

These data come from patent publication US11446265B2, “Reagents, compositions and methods for improving viability and function of cells, tissues and organs” (TARGA BIOMEDICAL, priority 2016, dated 2022).
